Reference: PMC10191551, “Safety, Tolerability, and Pharmacokinetics of Oral Ferric Maltol in Children With Iron Deficiency: Phase 1 Study” (JPGN Reports, 2021)

Conditions: in vivo
Protocol: The primary objectives were to assess iron uptake and ferric maltol pharmacokinetics. Serum iron and TSAT provided measures of iron uptake. In adults, dissociated maltol undergoes rapid glucuronidation and is cleared in urine as maltol glucuronide (36); therefore, in this study, plasma maltol glucuronide was measured to confirm the rate of clearance in children.
Sparse pharmacokinetic blood sampling was performed at baseline before the morning dose and at prespecified collection windows 0.5–6 hours after the morning dose on days 1 and 10, giving 3 to 6 samples per time point. The post-dose pharmacokinetic sample collection windows were 0.5–<1, 1–<2, 2–<3, 3–<4, and 4–<6 hours, with patients assigned to post-dose pharmacokinetic blood sampling schedules in sequential order at randomization. Individuals had the same schedule on days 1 and 10. Plasma maltol glucuronide and serum iron and TSAT were measured at each time point to calculate standard pharmacokinetic parameters.
The observed values for plasma maltol glucuronide and serum iron and TSAT were summarized by dose group and visit for the ITT population, as were changes from baseline in serum iron and TSAT. The ITT population was also used in the population pharmacokinetic analysis. […]

In the case of Cc1occc(=O)c1O[C@@H]1O[C@H](C(=O)O)[C@@H](O)[C@H](O)[C@H]1O [maltol glucuronide], the “Cmax and AUC of maltol glucuronide: dose dependence” value is reported as “dose-dependent”.
